# Laboratory results reported in patent US20240246937A1 (MERCK SHARP & DOHME LLC, priority 2021, published 2024).
# Target: recombinant IL4I1 (Homo sapiens (Human), UniProt Q96RQ9)
# Experiment: IL4I1 Enzymatic Assay (Amplex Red/HRP coupled fluorescence detection of H2O2)
# Assay type: biochemical
# Conditions: 240 min; recombinant IL4I1, four-hour pre-incubation with compound
# Outline: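 Recombinant human IL4I1 (1 nM final) pre-incubated 4 h with compound at ambient temperature in 50 mM Hepes pH 7.0, 0.005% Tween20. Started with 1 mM each Phe/Tyr/Trp plus Amplex Red/HRP; H2O2-derived resorufin fluorescence read after 120 min; EC50 from ten-point 1:3 titration, four-parameter fit.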
# recombinant IL4I1, sequence (Q96RQ9 22-567): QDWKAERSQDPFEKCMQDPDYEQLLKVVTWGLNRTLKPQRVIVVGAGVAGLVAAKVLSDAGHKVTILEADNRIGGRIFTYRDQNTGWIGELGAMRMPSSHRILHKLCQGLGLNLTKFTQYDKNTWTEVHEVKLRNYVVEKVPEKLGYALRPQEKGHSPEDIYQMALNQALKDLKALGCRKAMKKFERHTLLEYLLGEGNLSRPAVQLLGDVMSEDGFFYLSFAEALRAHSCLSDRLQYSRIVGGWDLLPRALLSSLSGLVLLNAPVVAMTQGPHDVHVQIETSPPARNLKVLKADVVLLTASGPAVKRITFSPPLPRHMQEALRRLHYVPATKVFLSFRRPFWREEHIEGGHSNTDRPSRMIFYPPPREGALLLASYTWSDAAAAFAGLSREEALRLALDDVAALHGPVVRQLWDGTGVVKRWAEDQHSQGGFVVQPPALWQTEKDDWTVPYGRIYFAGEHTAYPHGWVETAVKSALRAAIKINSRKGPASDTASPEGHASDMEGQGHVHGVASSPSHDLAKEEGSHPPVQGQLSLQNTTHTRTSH
row,Compound,EC50
1,"C[C@@H](c1nnc(-c2ccccc2)s1)N1CCN(C2CCC2)C(=O)C1=O [Example 356, (S)-1-cyclobutyl-4-(1-(5-phenyl-1,3,4-thiadiazol-2-yl)ethyl)piperazine-2,3-dione]",28 nM
2,"CC1CN(C2CCC2)C(=O)C(=O)N1Cc1nnc(-c2ccccc2)s1 (stereo not drawn) [Example 357, 1-cyclobutyl-5-methyl-4-((5-phenyl-1,3,4-thiadiazol-2-yl)methyl)piperazine-2,3-dione]",32 nM
3,"O=C1C(=O)N(C2CCCC2)CCN1Cc1cc(-c2ccccc2)no1 [Example 358A, 1-cyclopentyl-4-((3-phenylisoxazol-5-yl)methyl)piperazine-2,3-dione]",2 nM
4,"O=c1c(=O)n(C2CCCC2)ccn1Cc1cc(-c2ccccc2)no1 [Example 358B, 1-cyclopentyl-4-((3-phenylisoxazol-5-yl)methyl)-1,4-dihydropyrazine-2,3-dione]",1 nM
5,"O=C1C(=O)N(C23CC(C2)C3)CCN1Cc1ccc(-n2nccn2)cn1 [Example 359, 1-((5-(2H-1,2,3-triazol-2-yl)pyridin-2-yl)methyl)-4-(bicyclo[1.1.1]pentan-1-yl)piperazine-2,3-dione]",22 nM
6,"O=C1C(=O)N(C2CCCC2)CCN1Cc1ncc(-c2nccs2)cn1 [Example 361, 1-cyclopentyl-4-((5-(thiazol-2-yl)pyrimidin-2-yl)methyl)piperazine-2,3-dione]",96 nM
7,"O=C1C(=O)N(C2CCCC2)CCN1Cc1ccc(-c2nccs2)nn1 [Example 362, 1-cyclopentyl-4-((6-(thiazol-2-yl)pyridazin-3-yl)methyl)piperazine-2,3-dione]",22 nM
8,"O=C1C(=O)N(C2CCCC2)CCN1Cc1nnc(-c2nccs2)s1 [Example 363, 1-cyclopentyl-4-((5-(thiazol-2-yl)-1,3,4-thiadiazol-2-yl)methyl)piperazine-2,3-dione]",25 nM
9,"O=C1C(=O)N(C2CCCC2)CCN1Cc1ccc(-c2nccs2)nc1 [Example 364, 1-cyclopentyl-4-((6-(thiazol-2-yl)pyridin-3-yl)methyl)piperazine-2,3-dione]",17 nM
10,"O=C1C(=O)N(C2CCC2)CCN1Cc1ccc(-c2nccs2)nn1 [Example 365, 1-cyclobutyl-4-((6-(thiazol-2-yl)pyridazin-3-yl)methyl)piperazine-2,3-dione]",17 nM
11,"O=c1c(=O)n(C23CC(C2)C3)ccn1Cc1ccc(-c2nccs2)nn1 [Example 366, 1-(bicyclo[1.1.1]pentan-1-yl)-4-((6-(thiazol-2-yl)pyridazin-3-yl)methyl)-1,4-dihydropyrazine-2,3-dione]",9 nM
12,"O=c1c(=O)n(C2CCC2)ccn1Cc1ccc(-c2nccs2)nn1 [Example 367, 1-cyclobutyl-4-((6-(thiazol-2-yl)pyridazin-3-yl)methyl)-1,4-dihydropyrazine-2,3-dione]",9 nM
13,"O=C1C(=O)N(C2CCCC2)CCN1Cc1ccc(-c2ccccn2)nn1 [Example 368, 1-cyclopentyl-4-((6-(pyridin-2-yl)pyridazin-3-yl)methyl)piperazine-2,3-dione]",28 nM
14,"O=C1C(=O)N(C2CCC2)CCN1Cc1nnc(-c2ccccn2)s1 [Example 369, 1-cyclobutyl-4-((5-(pyridin-2-yl)-1,3,4-thiadiazol-2-yl)methyl)piperazine-2,3-dione]",32 nM
15,"O=c1c(=O)n(C2CCC2)ccn1Cc1nnc(-c2ccccn2)s1 [Example 370, 1-cyclobutyl-4-((5-(pyridin-2-yl)-1,3,4-thiadiazol-2-yl)methyl)-1,4-dihydropyrazine-2,3-dione]",20 nM
16,"O=c1c(=O)n([C@H]2C[C@H]3C[C@H]3C2)ccn1Cc1ncc(-c2nccs2)cc1F [Example 371, 1-((cis)-bicyclo[3.1.0]hexan-3-yl)-4-((3-fluoro-5-(thiazol-2-yl)pyridin-2-yl)methyl)-1,4-dihydropyrazine-2,3-dione]",42 nM
17,"O=c1c(=O)n([C@H]2C[C@@H](c3ccccc3)C2)ccn1Cc1nnc(-c2nccs2)s1 [Example 372, 1-((cis)-3-phenylcyclobutyl)-4-((5-(thiazol-2-yl)-1,3,4-thiadiazol-2-yl)methyl)-1,4-dihydropyrazine-2,3-dione]",23 nM
18,"O=c1c(=O)n(C2CCC2)ccn1Cc1cc(-c2ccccn2)on1 [Example 373, 1-cyclobutyl-4-((5-(pyridin-2-yl)isoxazol-3-yl)methyl)-1,4-dihydropyrazine-2,3-dione]",8 nM
19,"O=C1C(=O)N([C@H]2C[C@H]3C[C@H]3C2)CCN1Cc1ccc(-c2nccs2)nn1 [Example 374, 1-((cis)-bicyclo[3.1.0]hexan-3-yl)-4-((6-(thiazol-2-yl)pyridazin-3-yl)methyl)piperazine-2,3-dione]",8 nM
20,"O=c1c(=O)n([C@H]2C[C@H]3C[C@H]3C2)ccn1Cc1cc(-c2ccccn2)on1 [Example 375, 1-((cis)-bicyclo[3.1.0]hexan-3-yl)-4-((5-(pyridin-2-yl)isoxazol-3-yl)methyl)-1,4-dihydropyrazine-2,3-dione]",6 nM
21,"O=C1C(=O)N(C2CCC2)CCN1Cc1ncc(-c2ccccn2)s1 [Example 376, 1-cyclobutyl-4-((5-(pyridin-2-yl)thiazol-2-yl)methyl)piperazine-2,3-dione]",14 nM
22,"O=C1C(=O)N(C2CCCC2)CCN1Cc1ncc(-n2nccn2)cn1 [Example 378, 1-((5-(2H-1,2,3-triazol-2-yl)pyrimidin-2-yl)methyl)-4-cyclopentylpiperazine-2,3-dione]",138 nM
23,"O=C1C(=O)N(C2CCCC2)CCN1Cc1ccc(-n2nccn2)cc1F [Example 379, 1-cyclopentyl-4-(2-fluoro-4-(2H-1,2,3-triazol-2-yl)benzyl)piperazine-2,3-dione]",24 nM
24,"O=C1C(=O)N(C2CCCC2)CCN1Cc1ccc(-n2nccn2)cn1 [Example 380, 1-((5-(2H-1,2,3-triazol-2-yl)pyridin-2-yl)methyl)-4-cyclopentylpiperazine-2,3-dione]",17 nM
25,"O=C1C(=O)N(C2CCCC2)CCN1Cc1ccc(N2CCC(F)(F)C2)nc1 [Example 392, 1-cyclopentyl-4-((6-(3,3-difluoropyrrolidin-1-yl)pyridin-3-yl)methyl)piperazine-2,3-dione]",31 nM
26,"O=C1C(=O)N(C2CCCC2)CCN1Cc1ccc(N2CCC(F)C2)nc1 (stereo not drawn) [Example 393, 1-cyclopentyl-4-((6-(3-fluoropyrrolidin-1-yl)pyridin-3-yl)methyl)piperazine-2,3-dione]",33 nM

# Continued, values first:
row,EC50,Compound
1,16 nM,"O=c1c(=O)n(C23CC(C2)C3)ccn1Cc1ccc(-n2nccn2)cn1 [Example 360, 1-((5-(2H-1,2,3-triazol-2-yl)pyridin-2-yl)methyl)-4-(bicyclo[1.1.1]pentan-1-yl)-1,4-dihydropyrazine-2,3-dione]"
2,71 nM,"CC1(n2ccn(Cc3ccc(-c4nccs4)nn3)c(=O)c2=O)CC1 [Example 377, 1-(1-methylcyclopropyl)-4-((6-(thiazol-2-yl)pyridazin-3-yl)methyl)-1,4-dihydropyrazine-2,3-dione]"
3,40 nM,"CC1(n2ccn(Cc3ccc(-n4cccn4)cn3)c(=O)c2=O)CC1 [Example 381, 1-((5-(1H-pyrazol-1-yl)pyridin-2-yl)methyl)-4-(1-methylcyclopropyl)-1,4-dihydropyrazine-2,3-dione]"
4,25 nM,"O=c1c(=O)n(C23CC(C2)C3)ccn1Cc1ccc(-n2cccn2)cn1 [Example 382, 1-((5-(1H-pyrazol-1-yl)pyridin-2-yl)methyl)-4-(bicyclo[1.1.1]pentan-1-yl)-1,4-dihydropyrazine-2,3-dione]"
5,26 nM,"CC1(n2ccn(Cc3ccc(-n4cccn4)nc3)c(=O)c2=O)CC1 [Example 383, 1-((6-(1H-pyrazol-1-yl)pyridin-3-yl)methyl)-4-(1-methylcyclopropyl)-1,4-dihydropyrazine-2,3-dione]"
6,9 nM,"O=c1c(=O)n(C23CC(C2)C3)ccn1Cc1ccc(-n2cccn2)nc1 [Example 384, 1-((6-(1H-pyrazol-1-yl)pyridin-3-yl)methyl)-4-(bicyclo[1.1.1]pentan-1-yl)-1,4-dihydropyrazine-2,3-dione]"
7,42 nM,"CC1(n2ccn(Cc3ccc(-n4ccnn4)cn3)c(=O)c2=O)CC1 [Example 385, 1-((5-(1H-1,2,3-triazol-1-yl)pyridin-2-yl)methyl)-4-(1-methylcyclopropyl)-1,4-dihydropyrazine-2,3-dione]"
8,225 nM,"N#CC1(n2ccn(Cc3ccc(-n4cccn4)cn3)c(=O)c2=O)CC1 [Example 386, 1-(4-((5-(1H-pyrazol-1-yl)pyridin-2-yl)methyl)-2,3-dioxo-3,4-dihydropyrazin-1(2H)-yl)cyclopropane-1-carbonitrile]"
9,677 nM,"N#CC1(n2ccn(Cc3ccc(-n4ccnn4)cn3)c(=O)c2=O)CC1 [Example 387, 1-(4-((5-(1H-1,2,3-triazol-1-yl)pyridin-2-yl)methyl)-2,3-dioxo-3,4-dihydropyrazin-1(2H)-yl)cyclopropane-1-carbonitrile]"
10,23 nM,"O=c1c(=O)n(C23CC(C2)C3)ccn1Cc1ccc(-n2ccnn2)cn1 [Example 388, 1-((5-(1H-1,2,3-triazol-1-yl)pyridin-2-yl)methyl)-4-(bicyclo[1.1.1]pentan-1-yl)-1,4-dihydropyrazine-2,3-dione]"
11,369 nM,"N#CC1(n2ccn(Cc3ccc(-n4cccn4)nc3)c(=O)c2=O)CC1 [Example 389, 1-(4-((6-(1H-pyrazol-1-yl)pyridin-3-yl)methyl)-2,3-dioxo-3,4-dihydropyrazin-1(2H)-yl)cyclopropane-1-carbonitrile]"
12,343 nM,"N#CC1(n2ccn(Cc3ccc(-n4ccnn4)nc3)c(=O)c2=O)CC1 [Example 390, 1-(4-((6-(1H-1,2,3-triazol-1-yl)pyridin-3-yl)methyl)-2,3-dioxo-3,4-dihydropyrazin-1(2H)-yl)cyclopropane-1-carbonitrile]"
13,170 nM,"N#CC1(n2ccn(Cc3ccc(-n4nccn4)nc3)c(=O)c2=O)CC1 [Example 391, 1-(4-((6-(2H-1,2,3-triazol-2-yl)pyridin-3-yl)methyl)-2,3-dioxo-3,4-dihydropyrazin-1(2H)-yl)cyclopropane-1-carbonitrile]"
